According to US4353923A, “Pharmaceutical composition containing a benzofurancarboxamide derivative as the active ingredient” (Kyowa Hakko Kogyo Co., Ltd., priority 1980, dated 1982):

Columns and labels:
[1] = in vivo; settings: mouse, po, mice, deaths counted for 7 days
Procedure: In this example, 3-7 male dd mice weighing 20±1 g were used as one group. Each drug was suspended in a 0.3% CMC solution and orally administered. After the administration, number of dead animals was counted for 7 days to determine LD50 value. As the reference drugs, mepirizole and benzydamine hydrochloride were dissolved in water and orally administered. The drugs and the reference drugs were also administered in the same manner as above in Examples 2-5.

[2] = test system: male dd mice; assay: Muscle relaxant activity: slant test; format: in vivo; settings: 5 mice per group
Procedure: (§1) In this example, 5 male dd mice weighing 20±1 g were used as one group. Prior to the experiments, mice were placed on the rod having a diameter of 3 cm and rotating at 5 r.p.m. in the reverse direction of the rotation. […] The drugs were orally administered and the muscle relaxant activity with the passage of time was examined by the following tests.
Slant test: Each mouse was placed on a wire net inclined at an angle of 45° to observe whether it falls or not.
(§2) In each test, the drug was considered to have a muscle relaxant activity when the mouse fell.

[3] = test system: male dd mice; assay: Muscle relaxant activity: rotating rod test; format: in vivo; settings: 5 mice per group
Procedure: as §1
Rotating rod test: The same mouse was placed on the rotating rod to observe whether it falls or not within 2 minutes.
as §2

[4] = test system: male dd mice; assay: Muscle relaxant activity: traction test; format: in vivo; settings: 5 mice per group
Text: as §1
Traction test: Forefeet of the same mouse were placed on a wire to observe whether it falls or not.
as §2

[5] = test system: male dd mice; assay: Anticonvulsant activity: maximal electroshock convulsion test; format: in vivo; settings: Mus musculus, po, 1 h, 60 min after administration, read-out: Maximal electroshock convulsion test, inhibition ratio; for responders at 25 mg/kg: 25 mg/kg p.o.; for responders at 50 mg/kg: 50 mg/kg p.o.; for responders at 75 mg/kg: 75 mg/kg p.o.; for responders at 100 mg/kg: 100 mg/kg p.o.
Text: Anticonvulsant activity was examined according to maximal electroshock convulsion test.
In this experiment, 10 male dd mice weighing 23±1 g were used as one group. Each drug was orally administered to the animals. Sixty minutes after the administration, an electric current (2000 V, 50 mA) was applied to both eyes of the mouse for 0.2 second. Drug activity was judged according to whether tonic extensor seizures were observed or not.

[6] = test system: male dd mice; assay: Analgesic activity: acetic acid writhing; format: in vivo; settings: Mus musculus, po, 1 h, acetic acid i.p. after 60 min, read-out: Inhibition ratio (writhes, vs control); for inhibition in vivo at 50 mg/kg: 50 mg/kg p.o.; for inhibition in vivo at 150 mg/kg: 150 mg/kg p.o.
Procedure: In this experiment, 10 male dd mice weighing 20±1 g were used as one group for examination of analgesic activity. Sixty minutes after oral administration of each drug to each animal, 0.2 ml of a 0.7% acetic acid solution was intraperitoneally administered to the animal. Starting 10 minutes after the administration of acetic acid, the number of writhes occurred in 10 minutes was counted. Average number of writhes and inhibition ratio in comparison with control group were calculated.

[7] = test system: male Wistar rats; assay: Anti-inflammatory activity: carrageenin edema method; format: in vivo; settings: Rattus norvegicus, po, 3 hours after carrageenin, read-out: Inhibition ratio (paw swelling, vs control); for inhibition in vivo at 150 mg/kg: 150 mg/kg p.o.
Procedure: In this experiment, 5 male Wistar rats weighing 140±10 g were used as one group. Sixty minutes after oral administration of each drug to each animal, 0.1 ml of a 1% carrageenin solution as a phlogistic agent was injected into the plantar surface of the right hind paw of the animal to induce inflammation. The volume of the paw was measured before and 3 hours after the injection of the phlogistic agent. Swelling ratio and inhibition ratio in comparison with control group were calculated.

SMILES: Cc1c(C(=O)N(C)C)oc2cc(Cl)ccc12 [Compound (B), 6-Chloro-N,N,3-trimethyl-benzo[b]furan-2-carboxamide]
- LD50 at 168 h [1]: 500 to 1000 mg/kg
- Number of dropped mice, slant test ([2]; 300 mg/kg p.o., 1 hr): 5 mice
- Number of dropped mice, slant test ([2]; 300 mg/kg p.o., 2 hr): 5 mice
- Number of dropped mice, slant test ([2]; 300 mg/kg p.o., 3 hr): 5 mice
- Number of dropped mice, rotating rod test ([3]; 75 mg/kg p.o., 1 hr): 5 mice
- Number of dropped mice, rotating rod test ([3]; 75 mg/kg p.o., 2 hr): 4 mice
- Number of dropped mice, rotating rod test ([3]; 75 mg/kg p.o., 3 hr): 4 mice
- Number of dropped mice, rotating rod test ([3]; 150 mg/kg p.o., 1 hr): 5 mice
- Number of dropped mice, rotating rod test ([3]; 150 mg/kg p.o., 2 hr): 5 mice
- Number of dropped mice, rotating rod test ([3]; 150 mg/kg p.o., 3 hr): 5 mice
- Number of dropped mice, traction test ([4]; 75 mg/kg p.o., 1 hr): 3 mice
- Number of dropped mice, traction test ([4]; 75 mg/kg p.o., 2 hr): 4 mice
- Number of dropped mice, traction test ([4]; 75 mg/kg p.o., 3 hr): 2 mice
- Number of dropped mice, traction test ([4]; 150 mg/kg p.o., 1 hr): 5 mice
- Number of dropped mice, traction test ([4]; 150 mg/kg p.o., 2 hr): 5 mice
- Number of dropped mice, traction test ([4]; 150 mg/kg p.o., 3 hr): 5 mice
- responders at 25 mg/kg [5]: 0%
- responders at 50 mg/kg [5]: 40%
- responders at 75 mg/kg [5]: 60%
- inhibition in vivo at 50 mg/kg [6]: 34.9%
- inhibition in vivo at 150 mg/kg [6]: 95.4%
- inhibition in vivo at 150 mg/kg [7]: 39.8%

SMILES: Cc1c(C(=O)N(C)C)oc2c(Cl)cccc12 [Compound (C), 7-chloro-N,N,3-trimethylbenzo[b]furan-2-carboxamide]
- LD50 at 168 h [1]: > 1000 mg/kg
- Number of dropped mice, slant test ([2]; 50 mg/kg p.o., 1 hr): 5 mice
- Number of dropped mice, slant test ([2]; 50 mg/kg p.o., 2 hr): 4 mice
- Number of dropped mice, slant test ([2]; 50 mg/kg p.o., 3 hr): 1 mice
- Number of dropped mice, slant test ([2]; 100 mg/kg p.o., 1 hr): 5 mice
- Number of dropped mice, slant test ([2]; 100 mg/kg p.o., 2 hr): 5 mice
- Number of dropped mice, slant test ([2]; 100 mg/kg p.o., 3 hr): 5 mice
- Number of dropped mice, rotating rod test ([3]; 25 mg/kg p.o., 1 hr): 3 mice
- Number of dropped mice, rotating rod test ([3]; 25 mg/kg p.o., 2 hr): 1 mice
- Number of dropped mice, rotating rod test ([3]; 25 mg/kg p.o., 3 hr): 0 mice
- Number of dropped mice, rotating rod test ([3]; 50 mg/kg p.o., 1 hr): 5 mice
- Number of dropped mice, rotating rod test ([3]; 50 mg/kg p.o., 2 hr): 5 mice
- Number of dropped mice, rotating rod test ([3]; 50 mg/kg p.o., 3 hr): 2 mice
- Number of dropped mice, rotating rod test ([3]; 100 mg/kg p.o., 1 hr): 5 mice
- Number of dropped mice, rotating rod test ([3]; 100 mg/kg p.o., 2 hr): 5 mice
- Number of dropped mice, rotating rod test ([3]; 100 mg/kg p.o., 3 hr): 5 mice
- Number of dropped mice, traction test ([4]; 25 mg/kg p.o., 1 hr): 0 mice
- Number of dropped mice, traction test ([4]; 25 mg/kg p.o., 2 hr): 0 mice
- Number of dropped mice, traction test ([4]; 25 mg/kg p.o., 3 hr): 0 mice
- Number of dropped mice, traction test ([4]; 50 mg/kg p.o., 1 hr): 5 mice
- Number of dropped mice, traction test ([4]; 50 mg/kg p.o., 2 hr): 4 mice
- Number of dropped mice, traction test ([4]; 50 mg/kg p.o., 3 hr): 1 mice
- Number of dropped mice, traction test ([4]; 100 mg/kg p.o., 1 hr): 5 mice
- Number of dropped mice, traction test ([4]; 100 mg/kg p.o., 2 hr): 5 mice
- Number of dropped mice, traction test ([4]; 100 mg/kg p.o., 3 hr): 5 mice
- responders at 25 mg/kg [5]: 40%
- responders at 50 mg/kg [5]: 66.7%
- responders at 75 mg/kg [5]: 80%
- responders at 100 mg/kg [5]: 100%
- inhibition in vivo at 50 mg/kg [6]: 85.3%
- inhibition in vivo at 150 mg/kg [6]: 100%
- inhibition in vivo at 150 mg/kg [7]: 35.1%
- inhibition in vivo at 300 mg/kg ([7]; 300 mg/kg p.o.): 57.8%

SMILES: Cc1c(C(=O)N(C)C)oc2ccc(F)cc12 [Compound (D), 5-Fluoro-N,N,3-trimethyl-benzo[b]furan-2-carboxamide]
- LD50 at 168 h [1]: 700 to 1000 mg/kg
- Number of dropped mice, slant test ([2]; 150 mg/kg p.o., 1 hr): 4 mice
- Number of dropped mice, slant test ([2]; 150 mg/kg p.o., 2 hr): 4 mice
- Number of dropped mice, slant test ([2]; 150 mg/kg p.o., 3 hr): 1 mice
- Number of dropped mice, rotating rod test ([3]; 50 mg/kg p.o., 1 hr): 0 mice
- Number of dropped mice, rotating rod test ([3]; 50 mg/kg p.o., 2 hr): 0 mice
- Number of dropped mice, rotating rod test ([3]; 50 mg/kg p.o., 3 hr): 0 mice
- Number of dropped mice, rotating rod test ([3]; 75 mg/kg p.o., 1 hr): 3 mice
- Number of dropped mice, rotating rod test ([3]; 75 mg/kg p.o., 2 hr): 1 mice
- Number of dropped mice, rotating rod test ([3]; 75 mg/kg p.o., 3 hr): 0 mice
- Number of dropped mice, rotating rod test ([3]; 100 mg/kg p.o., 1 hr): 5 mice
- Number of dropped mice, rotating rod test ([3]; 100 mg/kg p.o., 2 hr): 3 mice
- Number of dropped mice, rotating rod test ([3]; 100 mg/kg p.o., 3 hr): 1 mice
- Number of dropped mice, rotating rod test ([3]; 150 mg/kg p.o., 1 hr): 5 mice
- Number of dropped mice, rotating rod test ([3]; 150 mg/kg p.o., 2 hr): 5 mice
- Number of dropped mice, rotating rod test ([3]; 150 mg/kg p.o., 3 hr): 3 mice
- Number of dropped mice, traction test ([4]; 50 mg/kg p.o., 1 hr): 0 mice
- Number of dropped mice, traction test ([4]; 50 mg/kg p.o., 2 hr): 0 mice
- Number of dropped mice, traction test ([4]; 50 mg/kg p.o., 3 hr): 0 mice
- Number of dropped mice, traction test ([4]; 75 mg/kg p.o., 1 hr): 2 mice
- Number of dropped mice, traction test ([4]; 75 mg/kg p.o., 2 hr): 1 mice
- Number of dropped mice, traction test ([4]; 75 mg/kg p.o., 3 hr): 0 mice
- Number of dropped mice, traction test ([4]; 100 mg/kg p.o., 1 hr): 2 mice
- Number of dropped mice, traction test ([4]; 100 mg/kg p.o., 2 hr): 1 mice
- Number of dropped mice, traction test ([4]; 100 mg/kg p.o., 3 hr): 0 mice
- Number of dropped mice, traction test ([4]; 150 mg/kg p.o., 1 hr): 4 mice
- Number of dropped mice, traction test ([4]; 150 mg/kg p.o., 2 hr): 3 mice
- Number of dropped mice, traction test ([4]; 150 mg/kg p.o., 3 hr): 2 mice
- responders at 50 mg/kg [5]: 10%
- responders at 75 mg/kg [5]: 40%
- responders at 100 mg/kg [5]: 90%
- inhibition in vivo at 50 mg/kg [6]: 44.2%
- inhibition in vivo at 150 mg/kg [6]: 95.4%
- inhibition in vivo at 150 mg/kg [7]: 34%
